What was measured:
Experiment in all cases: Radiolabeled ATP kinase assay, panel of 371 kinases (Table S6)
Format in all cases: biochemical
[1] = target: T1, panel of 371 human kinases (Homo sapiens, UniProt O00141); conditions: SGK1; 0.1 μM; 10 μM ATP; read-out: % Enzyme Activity (relative to DMSO controls)
T1 construct: purchased Reaction Biology Corp
Source text: (§1) ; FIG. 38C). […]. Further targeted analyses, such as genetic knock-down or knock-out, may be warranted to parse the role of these additional kinases in our model of neurodegeneration.

[2] = target: T2, panel of 371 human kinases (Homo sapiens, UniProt O15146); conditions: MUSK; 0.1 μM; 10 μM ATP; read-out: % Enzyme Activity (relative to DMSO controls)
T2 construct: purchased Reaction Biology Corp
Source text: as §1

[3] = target: T3, panel of 371 human kinases (Homo sapiens, UniProt O95382); conditions: MEKK6; 0.1 μM; 10 μM ATP; read-out: % Enzyme Activity (relative to DMSO controls)
T3 construct: purchased Reaction Biology Corp
T3 sequence (O95382 whole entry): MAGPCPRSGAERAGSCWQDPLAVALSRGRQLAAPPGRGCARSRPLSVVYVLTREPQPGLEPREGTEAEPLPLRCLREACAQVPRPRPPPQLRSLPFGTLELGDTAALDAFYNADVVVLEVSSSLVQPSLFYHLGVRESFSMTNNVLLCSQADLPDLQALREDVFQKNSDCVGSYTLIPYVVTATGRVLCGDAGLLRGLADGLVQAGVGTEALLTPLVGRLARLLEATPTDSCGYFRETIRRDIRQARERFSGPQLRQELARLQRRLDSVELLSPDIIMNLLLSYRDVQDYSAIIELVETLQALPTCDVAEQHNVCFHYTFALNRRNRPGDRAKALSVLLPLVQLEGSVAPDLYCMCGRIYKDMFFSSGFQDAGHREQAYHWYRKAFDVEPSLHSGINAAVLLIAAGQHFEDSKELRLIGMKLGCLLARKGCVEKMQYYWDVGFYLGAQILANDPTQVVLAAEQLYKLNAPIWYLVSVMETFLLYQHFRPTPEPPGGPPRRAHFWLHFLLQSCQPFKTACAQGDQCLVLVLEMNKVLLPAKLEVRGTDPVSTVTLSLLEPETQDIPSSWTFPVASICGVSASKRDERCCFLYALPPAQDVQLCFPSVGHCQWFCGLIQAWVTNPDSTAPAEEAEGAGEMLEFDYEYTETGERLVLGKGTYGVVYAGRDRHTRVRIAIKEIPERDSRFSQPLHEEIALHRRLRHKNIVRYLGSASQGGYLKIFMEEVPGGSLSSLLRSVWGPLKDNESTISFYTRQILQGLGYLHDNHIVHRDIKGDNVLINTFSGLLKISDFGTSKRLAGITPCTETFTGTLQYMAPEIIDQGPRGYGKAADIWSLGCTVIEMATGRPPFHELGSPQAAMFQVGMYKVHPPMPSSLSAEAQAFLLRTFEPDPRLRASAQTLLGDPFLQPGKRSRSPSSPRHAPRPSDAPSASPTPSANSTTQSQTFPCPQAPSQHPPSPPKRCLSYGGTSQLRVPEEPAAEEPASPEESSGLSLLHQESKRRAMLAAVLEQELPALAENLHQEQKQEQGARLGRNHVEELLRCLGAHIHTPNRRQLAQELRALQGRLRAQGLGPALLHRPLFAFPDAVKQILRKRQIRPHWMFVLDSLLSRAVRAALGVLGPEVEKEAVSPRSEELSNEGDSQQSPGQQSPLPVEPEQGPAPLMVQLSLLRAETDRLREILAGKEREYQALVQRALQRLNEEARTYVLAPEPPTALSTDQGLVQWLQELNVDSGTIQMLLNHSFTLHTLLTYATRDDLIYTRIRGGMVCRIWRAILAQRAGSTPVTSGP
Source text: as §1

[4] = target: T4, panel of 371 human kinases (Homo sapiens, UniProt O96017); conditions: CHK2; 0.1 μM; 10 μM ATP; read-out: % Enzyme Activity (relative to DMSO controls)
T4 construct: purchased Reaction Biology Corp
T4 sequence (O96017 whole entry): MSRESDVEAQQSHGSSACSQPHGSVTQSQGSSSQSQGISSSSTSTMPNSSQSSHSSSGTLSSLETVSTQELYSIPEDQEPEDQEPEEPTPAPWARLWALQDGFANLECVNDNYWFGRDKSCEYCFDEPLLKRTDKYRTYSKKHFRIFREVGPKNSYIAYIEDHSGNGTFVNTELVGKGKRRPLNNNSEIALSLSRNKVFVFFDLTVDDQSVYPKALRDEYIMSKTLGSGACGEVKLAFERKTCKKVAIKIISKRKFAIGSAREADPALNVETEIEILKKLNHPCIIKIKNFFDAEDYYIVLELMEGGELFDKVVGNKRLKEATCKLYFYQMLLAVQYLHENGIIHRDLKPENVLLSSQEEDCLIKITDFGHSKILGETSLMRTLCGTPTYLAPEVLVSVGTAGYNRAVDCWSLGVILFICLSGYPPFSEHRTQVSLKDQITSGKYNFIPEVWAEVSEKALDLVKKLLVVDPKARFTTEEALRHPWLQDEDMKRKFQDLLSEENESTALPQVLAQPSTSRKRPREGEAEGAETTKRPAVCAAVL
Source text: as §1

[5] = target: T5, panel of 371 human kinases (Homo sapiens, UniProt P10721); conditions: c-Kit; 0.1 μM; 10 μM ATP; read-out: % Enzyme Activity (relative to DMSO controls)
T5 construct: purchased Reaction Biology Corp
Source text: as §1

[6] = target: T6, panel of 371 human kinases (Homo sapiens, UniProt P29317); conditions: EPHA2; 0.1 μM; 10 μM ATP; read-out: % Enzyme Activity (relative to DMSO controls)
T6 construct: purchased Reaction Biology Corp
Source text: as §1

[7] = target: T7, panel of 371 human kinases (Homo sapiens, UniProt P29597); conditions: TYK2; 0.1 μM; 10 μM ATP; read-out: % Enzyme Activity (relative to DMSO controls)
T7 construct: purchased Reaction Biology Corp
T7 sequence (P29597 whole entry): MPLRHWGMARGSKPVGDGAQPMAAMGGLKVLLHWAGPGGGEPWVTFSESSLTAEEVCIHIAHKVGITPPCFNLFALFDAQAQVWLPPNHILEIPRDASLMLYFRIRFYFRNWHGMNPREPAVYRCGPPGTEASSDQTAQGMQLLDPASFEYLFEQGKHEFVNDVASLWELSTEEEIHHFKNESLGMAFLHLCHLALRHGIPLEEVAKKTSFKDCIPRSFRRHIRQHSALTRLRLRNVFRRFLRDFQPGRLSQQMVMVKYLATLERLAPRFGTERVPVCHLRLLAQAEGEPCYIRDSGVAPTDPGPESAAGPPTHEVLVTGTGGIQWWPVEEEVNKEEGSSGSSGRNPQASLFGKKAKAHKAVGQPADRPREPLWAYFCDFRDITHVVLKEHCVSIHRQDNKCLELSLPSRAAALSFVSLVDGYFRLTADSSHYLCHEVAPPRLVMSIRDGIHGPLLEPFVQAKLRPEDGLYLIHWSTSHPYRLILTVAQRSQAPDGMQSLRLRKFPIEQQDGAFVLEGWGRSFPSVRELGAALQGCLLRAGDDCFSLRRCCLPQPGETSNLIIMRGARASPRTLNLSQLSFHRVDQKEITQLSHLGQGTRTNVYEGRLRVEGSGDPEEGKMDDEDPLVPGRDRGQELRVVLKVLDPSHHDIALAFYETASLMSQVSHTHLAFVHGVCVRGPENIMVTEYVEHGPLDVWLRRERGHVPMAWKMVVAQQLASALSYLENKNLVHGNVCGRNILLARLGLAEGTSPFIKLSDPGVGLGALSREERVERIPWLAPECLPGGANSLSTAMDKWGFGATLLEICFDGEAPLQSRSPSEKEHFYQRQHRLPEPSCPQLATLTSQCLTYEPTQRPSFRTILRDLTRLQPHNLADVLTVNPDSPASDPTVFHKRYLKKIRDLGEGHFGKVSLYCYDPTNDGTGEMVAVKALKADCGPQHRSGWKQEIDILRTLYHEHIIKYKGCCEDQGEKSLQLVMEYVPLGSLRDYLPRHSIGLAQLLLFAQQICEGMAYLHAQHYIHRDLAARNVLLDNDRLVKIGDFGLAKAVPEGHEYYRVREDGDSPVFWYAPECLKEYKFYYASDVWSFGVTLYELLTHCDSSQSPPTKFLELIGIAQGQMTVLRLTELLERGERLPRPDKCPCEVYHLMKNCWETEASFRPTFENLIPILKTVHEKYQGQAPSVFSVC
Source text: as §1

[8] = target: T8, panel of 371 human kinases (Homo sapiens, UniProt P42681); conditions: TXK; 0.1 μM; 10 μM ATP; read-out: % Enzyme Activity (relative to DMSO controls)
T8 construct: purchased Reaction Biology Corp
Source text: as §1

[9] = target: T9, panel of 371 human kinases (Homo sapiens, UniProt P43405); conditions: SYK; 0.1 μM; 10 μM ATP; read-out: % Enzyme Activity (relative to DMSO controls)
T9 construct: purchased Reaction Biology Corp
Source text: as §1

[10] = target: T10, panel of 371 human kinases (Homo sapiens, UniProt Q00536); conditions: CDK16/cyclin Y (PCTAIRE); 0.1 μM; 10 μM ATP; read-out: % Enzyme Activity (relative to DMSO controls)
T10 construct: purchased Reaction Biology Corp
Source text: as §1

[11] = target: T11, panel of 371 human kinases (Homo sapiens, UniProt Q04771); conditions: ALK2/ACVR1; 0.1 μM; 10 μM ATP; read-out: % Enzyme Activity (relative to DMSO controls)
T11 construct: purchased Reaction Biology Corp
Source text: as §1

[12] = target: T12, panel of 371 human kinases (Homo sapiens, UniProt Q13043); conditions: MST1/STK4; 0.1 μM; 10 μM ATP; read-out: % Enzyme Activity (relative to DMSO controls)
T12 construct: purchased Reaction Biology Corp
Source text: as §1

[13] = target: T13, panel of 371 human kinases (Homo sapiens, UniProt Q13470); conditions: TNK1; 0.1 μM; 10 μM ATP; read-out: % Enzyme Activity (relative to DMSO controls)
T13 construct: purchased Reaction Biology Corp
Source text: as §1

[14] = target: T14, panel of 371 human kinases (Homo sapiens, UniProt Q5TCX8); conditions: MLK4; 0.1 μM; 10 μM ATP; read-out: % Enzyme Activity (relative to DMSO controls)
T14 construct: purchased Reaction Biology Corp
Source text: as §1

[15] = target: T15, panel of 371 human kinases (Homo sapiens, UniProt Q5TCY1); conditions: TTBK1; 0.1 μM; 10 μM ATP; read-out: % Enzyme Activity (relative to DMSO controls)
T15 construct: purchased Reaction Biology Corp
Source text: as §1

[16] = target: T16, panel of 371 human kinases (Homo sapiens, UniProt Q6DT37); conditions: DMPK2; 0.1 μM; 10 μM ATP; read-out: % Enzyme Activity (relative to DMSO controls)
T16 construct: purchased Reaction Biology Corp
Source text: as §1

[17] = target: T17, panel of 371 human kinases (Homo sapiens, UniProt Q8IU85); conditions: CAMK1d; 0.1 μM; 10 μM ATP; read-out: % Enzyme Activity (relative to DMSO controls)
T17 construct: purchased Reaction Biology Corp
Source text: as §1

[18] = target: T18, panel of 371 human kinases (Homo sapiens, UniProt Q96GD4); conditions: Aurora B; 0.1 μM; 10 μM ATP; read-out: % Enzyme Activity (relative to DMSO controls)
T18 construct: purchased Reaction Biology Corp
T18 sequence (Q96GD4 whole entry): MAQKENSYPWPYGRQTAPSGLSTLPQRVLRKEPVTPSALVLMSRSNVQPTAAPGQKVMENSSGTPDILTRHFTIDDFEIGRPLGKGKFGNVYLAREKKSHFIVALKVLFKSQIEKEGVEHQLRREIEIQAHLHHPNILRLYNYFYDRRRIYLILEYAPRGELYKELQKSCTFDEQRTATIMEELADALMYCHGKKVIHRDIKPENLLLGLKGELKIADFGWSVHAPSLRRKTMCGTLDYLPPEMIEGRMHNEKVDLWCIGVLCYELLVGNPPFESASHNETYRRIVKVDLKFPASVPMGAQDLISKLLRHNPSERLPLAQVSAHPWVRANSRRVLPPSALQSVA
Source text: as §1

[19] = target: T19, panel of 371 human kinases (Homo sapiens, UniProt Q96RG2); conditions: PASK; 0.1 μM; 10 μM ATP; read-out: % Enzyme Activity (relative to DMSO controls)
T19 construct: purchased Reaction Biology Corp
Source text: as §1

[20] = target: T20, panel of 371 human kinases (Homo sapiens, UniProt Q96S53); conditions: TESK2; 0.1 μM; 10 μM ATP; read-out: % Enzyme Activity (relative to DMSO controls)
T20 construct: purchased Reaction Biology Corp
Source text: as §1

[21] = target: T21, panel of 371 human kinases (Homo sapiens, UniProt Q9BXA7); conditions: STK22D/TSSK1; 0.1 μM; 10 μM ATP; read-out: % Enzyme Activity (relative to DMSO controls)
T21 construct: purchased Reaction Biology Corp
T21 sequence (Q9BXA7 whole entry): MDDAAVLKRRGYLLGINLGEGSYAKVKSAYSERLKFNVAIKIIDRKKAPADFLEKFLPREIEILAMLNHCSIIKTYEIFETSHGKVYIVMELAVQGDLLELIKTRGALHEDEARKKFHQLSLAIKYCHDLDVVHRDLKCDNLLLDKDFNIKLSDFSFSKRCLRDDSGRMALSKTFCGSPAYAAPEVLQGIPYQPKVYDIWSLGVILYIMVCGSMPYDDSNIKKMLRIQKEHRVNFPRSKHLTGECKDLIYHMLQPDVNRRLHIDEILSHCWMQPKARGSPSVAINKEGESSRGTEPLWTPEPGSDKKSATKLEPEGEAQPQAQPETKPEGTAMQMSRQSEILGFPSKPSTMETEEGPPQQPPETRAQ
Source text: as §1

[22] = target: T22, panel of 371 human kinases (Homo sapiens, UniProt Q9H2X6); conditions: HIPK2; 0.1 μM; 10 μM ATP; read-out: % Enzyme Activity (relative to DMSO controls)
T22 construct: purchased Reaction Biology Corp
T22 sequence (Q9H2X6 whole entry): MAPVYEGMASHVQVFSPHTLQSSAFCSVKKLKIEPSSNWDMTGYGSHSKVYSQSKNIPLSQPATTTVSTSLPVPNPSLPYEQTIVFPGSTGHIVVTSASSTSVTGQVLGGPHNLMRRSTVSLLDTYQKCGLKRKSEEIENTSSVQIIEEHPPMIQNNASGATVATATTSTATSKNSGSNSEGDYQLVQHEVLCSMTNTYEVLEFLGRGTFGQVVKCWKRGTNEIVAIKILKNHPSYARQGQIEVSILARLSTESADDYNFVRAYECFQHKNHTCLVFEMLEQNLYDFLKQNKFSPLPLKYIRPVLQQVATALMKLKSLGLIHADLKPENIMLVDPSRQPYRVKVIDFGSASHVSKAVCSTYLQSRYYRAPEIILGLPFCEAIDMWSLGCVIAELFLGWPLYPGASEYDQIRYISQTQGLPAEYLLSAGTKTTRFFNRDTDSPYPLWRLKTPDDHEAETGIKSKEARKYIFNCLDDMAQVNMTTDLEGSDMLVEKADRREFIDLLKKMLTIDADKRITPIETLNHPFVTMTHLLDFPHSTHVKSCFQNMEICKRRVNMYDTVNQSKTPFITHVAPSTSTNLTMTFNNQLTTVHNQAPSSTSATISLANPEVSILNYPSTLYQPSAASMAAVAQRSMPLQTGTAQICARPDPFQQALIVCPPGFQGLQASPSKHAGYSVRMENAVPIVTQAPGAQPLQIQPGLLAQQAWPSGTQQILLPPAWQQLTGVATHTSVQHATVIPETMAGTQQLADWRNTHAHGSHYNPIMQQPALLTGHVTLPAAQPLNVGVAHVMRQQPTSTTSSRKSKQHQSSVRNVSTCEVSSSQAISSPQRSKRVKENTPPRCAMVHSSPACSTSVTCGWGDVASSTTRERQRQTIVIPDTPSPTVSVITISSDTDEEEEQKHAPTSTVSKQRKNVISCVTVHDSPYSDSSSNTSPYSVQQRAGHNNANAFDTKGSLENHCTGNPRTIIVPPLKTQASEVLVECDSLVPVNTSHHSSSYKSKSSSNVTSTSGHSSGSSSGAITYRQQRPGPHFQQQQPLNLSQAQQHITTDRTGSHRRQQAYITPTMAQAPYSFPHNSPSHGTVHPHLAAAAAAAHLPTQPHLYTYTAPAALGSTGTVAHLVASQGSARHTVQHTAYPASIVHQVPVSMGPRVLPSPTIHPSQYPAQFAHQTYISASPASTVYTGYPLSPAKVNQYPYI
Source text: as §1

[23] = target: T23, panel of 371 human kinases (Homo sapiens, UniProt Q9NQU5); conditions: PAK6; 0.1 μM; 10 μM ATP; read-out: % Enzyme Activity (relative to DMSO controls)
T23 construct: purchased Reaction Biology Corp
Source text: as §1

[24] = target: T24, panel of 371 human kinases (Homo sapiens, UniProt Q9Y2K2); conditions: SIK3; 0.1 μM; 10 μM ATP; read-out: % Enzyme Activity (relative to DMSO controls)
T24 construct: purchased Reaction Biology Corp
Source text: as §1

| SMILES | remaining activity at 0.1 µM [1] | remaining activity at 0.1 µM [2] | remaining activity at 0.1 µM [3] | remaining activity at 0.1 µM [4] | remaining activity at 0.1 µM [5] | remaining activity at 0.1 µM [6] | remaining activity at 0.1 µM [7] | remaining activity at 0.1 µM [8] | remaining activity at 0.1 µM [9] | remaining activity at 0.1 µM [10] | remaining activity at 0.1 µM [11] | remaining activity at 0.1 µM [12] | remaining activity at 0.1 µM [13] | remaining activity at 0.1 µM [14] | remaining activity at 0.1 µM [15] | remaining activity at 0.1 µM [16] | remaining activity at 0.1 µM [17] | remaining activity at 0.1 µM [18] | remaining activity at 0.1 µM [19] | remaining activity at 0.1 µM [20] | other results |
| --- | --- | --- | --- | --- | --- | --- | --- | --- | --- | --- | --- | --- | --- | --- | --- | --- | --- | --- | --- | --- | --- |
| CN1CCN(Cc2ccc(-c3cnc4[nH]cc(-c5ccc6[nH]ccc6c5)c4c3)cc2)CC1 [Compound 1, 3-(1H-Indol-5-yl)-5-(4-((4-methylpiperazin-1-yl)methyl)phenyl)-1H-pyrrolo[2,3-b]pyridine, reference compound] | 96% | 101% | 91.6% | 85.2% | 100% | 93.6% | 90.8% | 85.3% | 89.6% | 130% | 121% | 80% | 97% | 99.9% | 111% | 76.8% | 101% | 103% | 78% | 112% | remaining activity at 0.1 µM [21]: 87.2%; remaining activity at 0.1 µM [22]: 110%; remaining activity at 0.1 µM [23]: 94.6%; remaining activity at 0.1 µM [24]: 75.5% |
| OCCN1CCN(Cc2ccc(-c3cnc4[nH]cc(-c5cccc(Cl)c5)c4c3)cc2)CC1 [Compound 12k, 2-(4-(4-(3-(3-Chlorophenyl)-1H-pyrrolo[2,3-b]pyridin-5-yl)benzyl)piperazin-1-yl)ethan-1-ol] | 99.6% | 86.7% | 95% | 93.5% | 89.8% | 92.3% | 92.9% | 87% | 93.9% | 97.3% | 126% | 75.9% | 95.6% | 108% | 106% | 61.3% | 96.8% | 82.6% | 90.1% | 92.7% | remaining activity at 0.1 µM [21]: 75.2%; remaining activity at 0.1 µM [22]: 95.7%; remaining activity at 0.1 µM [23]: 96.3%; remaining activity at 0.1 µM [24]: 92.3% |
